{"source": "patent US4189604A", "about": "“Bestatin” (Zaidan Hojin Biseibutsu Kagaku Kenkyu Kai, priority 1975, dated 1980)", "key": {"aminopeptidase B": {"target": "T1, aminopeptidase B (Rattus norvegicus, UniProt O09175)", "T1 construct": "aminopeptidase B solution which is prepared by Sephadex 100 chromatography as described by Hopusu et al; from tissue", "T1 sequence (O09175 1-650)": "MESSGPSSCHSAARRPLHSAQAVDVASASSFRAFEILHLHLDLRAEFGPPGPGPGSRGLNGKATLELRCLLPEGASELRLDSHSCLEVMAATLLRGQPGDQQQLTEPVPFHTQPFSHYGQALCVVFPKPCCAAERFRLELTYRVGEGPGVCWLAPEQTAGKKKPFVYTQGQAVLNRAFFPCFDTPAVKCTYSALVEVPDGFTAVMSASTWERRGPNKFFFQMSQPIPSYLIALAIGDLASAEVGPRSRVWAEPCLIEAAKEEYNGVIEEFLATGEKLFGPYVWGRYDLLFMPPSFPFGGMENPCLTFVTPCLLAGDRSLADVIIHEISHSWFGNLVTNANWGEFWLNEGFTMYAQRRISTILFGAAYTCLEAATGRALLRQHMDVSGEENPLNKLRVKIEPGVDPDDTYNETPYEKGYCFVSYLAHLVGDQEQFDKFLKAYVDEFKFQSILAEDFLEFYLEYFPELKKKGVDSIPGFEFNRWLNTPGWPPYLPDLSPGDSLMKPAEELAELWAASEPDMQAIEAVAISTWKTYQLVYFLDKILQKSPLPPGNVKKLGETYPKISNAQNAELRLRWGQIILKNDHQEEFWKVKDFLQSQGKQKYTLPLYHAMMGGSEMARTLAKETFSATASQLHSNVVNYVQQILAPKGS", "experiment": "Inhibitory activity against aminopeptidase B", "type": "biochemical", "protocol": "(A) Inhibitory activity against aminopeptidase B Testing method: The method described by […] in Archives of Biochemistry and Biophysics 114, 557, (1966) was modfied. To the mixture of 0.3 ml. of 1 mM arginine β-naphthylamide and 1.0 Ml. of 0.1 M Tris hydrochloride buffer (pH 7.0), 0.7 Ml. of distilled water with or without a test material is added and warmed at 37° C. for 3 minutes. The reaction is started by addition of 0.2 ml. of aminopeptidase B solution which is prepared by Sephadex 100 chromatography as described by Hopusu et al. […] Fifteen minutes at room temperature thereafter, absorbance (a) at 530 nm is measured by spectrophotometer. […] The inhibition percent is calculated as follows: (b-a)/b×100."}, "[1]": {"experiment": "Contraceptive property: antifertility of Bestatin", "type": "in vivo, ICR JCL female mice", "protocol": "(C) Contraceptive property:\nAntifertility of Bestatin:\nImmediately after subcutaneously administering Bestatin (10 mg./kg.) to ICR JCL female mice at the age of puberty, these mice were placed with male mice of similar line. Female mice which had copulated were killed two days after formulation of vaginal plug and the ova were collected from their uterine tubes so as to examine whether they had been fertilized or not. The fertilized ova were at 8-16 cell period."}, "[2]": {"tested_on": "plaque forming cells in the spleen", "experiment": "Effect on humoral antibody formation to Sheep Red Blood Cell (SRBC) in mice (JERNE's hemolytic plaque technique)", "type": "in vivo, Mice (dd/y female)", "conditions": "for Antibody Forming Cells Number / Antibody Forming Cells Treated Group / Non-treated Group: intraperitoneal, four days", "protocol": "The compound of Example 28 was also tested for its humoral antibody formation to find its efficacy as an immunizing cancer inhibitor. […] For the humoral antibody formation of Bestatin per se see J. Antibiotics, 29(8), 857-859 (August, 1976).\nThe effect of (2RS,3RS)-3-amino-2-hydroxy-4-hydroxyphenylbutanoyl-(S)-leucine on humoral antibody formation to Sheep Red Blood Cell (SRBC) in mice was studied as follows.\nMice (dd/y female) were immunized by intravenous injection of 10^8 SRBC. Intraperitoneal injection of (2RS,3RS)-3-amino-2-hydroxy-4-hydroxyphenylbutanoyl-(S)-leucine was made soon afterwards.\nFour days thereafter the number of plaque forming cells in the spleen were enumerated by JERNE's hemolytic plaque technique [Jerne, N. K.; A. A. Nordin & C. Henry: \"The Agar Plaque Technique for Recognizing Antibody-producing Cells\" in cell-bound antibodies (Wistar Institute Press, Philadelphia, 1963), pp. 109-122]."}, "[3]": {"experiment": "Organ distribution of Bleomycin B2 in the presence of Bestatin", "type": "in vivo, ICR male mice", "conditions": "1 hour, average of 3", "protocol": "(B) Organ distribution of Bleomycin in the presence of Bestatin:\n100 mg./kg. of Bleomycin B2 was subcutaneously administered to each of three ICR male mice (4 weeks of age) and 100 mg./kg. of Bleomycin B2 and 100 mg./kg. of Bestatin were subcutaneously administered simultaneously to each of three similar mice. These 6 mice were killed one hour after administration and the quantity of Bleomycin B2 remaining in the serum and organs was determined by a thin layer disc method employing Bacillus subtilis PCI219 as the test microorganism. The results are as listed in Table 2, wherein the numerals show average values in mcg./ml."}, "[4]": {"conditions": "BLM 100 mg/kg + BST (Bestatin) 100 mg/kg s.c. simultaneously"}}, "data": [{"compound": "CC(C)C[C@H](NC(=O)[C@@H](O)[C@H](N)Cc1ccccc1)C(=O)O", "note": "[No. 1, [(2S,3R)-3-amino-2-hydroxy-4-phenylbutanoyl]-L-leucine]", "values": [{"measurement": "ID50", "setting": "aminopeptidase B; Biological Testing table after Example 29", "value": 0.10, "unit": "µg/mL"}, {"measurement": "ID50", "setting": "aminopeptidase B; pH 7.0, 37° C., 30 minutes, Table 1", "value": 0.10, "unit": "µg/mL"}, {"measurement": "antifertility", "setting": "[1]; 10 mg./kg. s.c.", "value": "has an antifertility property"}, {"measurement": "Fertilized ovum (number)", "setting": "[1]; 10 mg./kg. s.c., Female No. 1", "value": 4}, {"measurement": "Fertilized ovum (percent)", "setting": "[1]; 10 mg./kg. s.c., Female No. 1", "value": 40, "unit": "%"}, {"measurement": "Non-fertilized ovum (number)", "setting": "[1]; 10 mg./kg. s.c., Female No. 1", "value": 6}, {"measurement": "Non-fertilized ovum (percent)", "setting": "[1]; 10 mg./kg. s.c., Female No. 1", "value": 60, "unit": "%"}, {"measurement": "Number of collected ovum", "setting": "[1]; 10 mg./kg. s.c., Female No. 1", "value": 10}, {"measurement": "Number of corpus luteum", "setting": "[1]; 10 mg./kg. s.c., Female No. 1", "value": 10}, {"measurement": "Fertilized ovum (number)", "setting": "[1]; 10 mg./kg. s.c., Female No. 2", "value": 6}, {"measurement": "Fertilized ovum (percent)", "setting": "[1]; 10 mg./kg. s.c., Female No. 2", "value": 31.6, "unit": "%"}, {"measurement": "Non-fertilized ovum (number)", "setting": "[1]; 10 mg./kg. s.c., Female No. 2", "value": 13}, {"measurement": "Non-fertilized ovum (percent)", "setting": "[1]; 10 mg./kg. s.c., Female No. 2", "value": 68.4, "unit": "%"}, {"measurement": "Number of collected ovum", "setting": "[1]; 10 mg./kg. s.c., Female No. 2", "value": 19}, {"measurement": "Number of corpus luteum", "setting": "[1]; 10 mg./kg. s.c., Female No. 2", "value": 19}, {"measurement": "Fertilized ovum (number)", "setting": "[1]; 10 mg./kg. s.c., Total N=2", "value": 10}, {"measurement": "Fertilized ovum (percent)", "setting": "[1]; 10 mg./kg. s.c., Total N=2", "value": 34.5, "unit": "%"}, {"measurement": "Non-fertilized ovum (number)", "setting": "[1]; 10 mg./kg. s.c., Total N=2", "value": 19}, {"measurement": "Non-fertilized ovum (percent)", "setting": "[1]; 10 mg./kg. s.c., Total N=2", "value": 65.5, "unit": "%"}, {"measurement": "Number of collected ovum", "setting": "[1]; 10 mg./kg. s.c., Total N=2", "value": 29}, {"measurement": "Number of corpus luteum", "setting": "[1]; 10 mg./kg. s.c., Total N=2", "value": 29}, {"measurement": "fertility of the ova collected", "setting": "[1]; copulated 4-16 hours after administration, control 70%", "value": 34.5, "unit": "%"}, {"measurement": "number of antibody forming cells compared with non-treated group", "setting": "[2]; 10 mcg., in words", "value": "nearly equal to that of non-treated group"}, {"measurement": "Antibody Forming Cells Number", "setting": "[2]; dose 1 mg.", "value": "190,000±7,100"}, {"measurement": "Antibody Forming Cells Treated Group / Non-treated Group", "setting": "[2]; dose 1 mg.", "value": 1.52}, {"measurement": "Antibody Forming Cells Number", "setting": "[2]; dose 10 mcg.", "value": "136,250±6,500"}, {"measurement": "Antibody Forming Cells Treated Group / Non-treated Group", "setting": "[2]; dose 10 mcg.", "value": 1.09}]}, {"compound": "Bleomycin B2 [BLM]", "values": [{"measurement": "Bleomycin B2 remaining in Brain", "setting": "[3]; [4]", "value": 2.4, "unit": "µg/mL"}, {"measurement": "Bleomycin B2 remaining in Kidney", "setting": "[3]; [4]", "value": 84.0, "unit": "µg/mL"}, {"measurement": "Bleomycin B2 remaining in Liver", "setting": "[3]; [4]", "value": 0, "unit": "µg/mL"}, {"measurement": "Bleomycin B2 remaining in Lung", "setting": "[3]; [4]", "value": 21.2, "unit": "µg/mL"}, {"measurement": "Bleomycin B2 remaining in Serum", "setting": "[3]; [4]", "value": 140, "unit": "µg/mL"}, {"measurement": "Bleomycin B2 remaining in Skin", "setting": "[3]; [4]", "value": 42.0, "unit": "µg/mL"}, {"measurement": "Bleomycin B2 remaining in Spleen", "setting": "[3]; [4]", "value": 5.8, "unit": "µg/mL"}, {"measurement": "Bleomycin B2 remaining in Stomach", "setting": "[3]; [4]", "value": 2.5, "unit": "µg/mL"}, {"measurement": "Bleomycin B2 remaining in Brain", "setting": "[3]; BLM 100 mg/kg s.c. alone", "value": 0, "unit": "µg/mL"}, {"measurement": "Bleomycin B2 remaining in Kidney", "setting": "[3]; BLM 100 mg/kg s.c. alone", "value": 68.0, "unit": "µg/mL"}, {"measurement": "Bleomycin B2 remaining in Liver", "setting": "[3]; BLM 100 mg/kg s.c. alone", "value": 0, "unit": "µg/mL"}, {"measurement": "Bleomycin B2 remaining in Lung", "setting": "[3]; BLM 100 mg/kg s.c. alone", "value": 11.2, "unit": "µg/mL"}, {"measurement": "Bleomycin B2 remaining in Serum", "setting": "[3]; BLM 100 mg/kg s.c. alone", "value": 110, "unit": "µg/mL"}, {"measurement": "Bleomycin B2 remaining in Skin", "setting": "[3]; BLM 100 mg/kg s.c. alone", "value": 4.5, "unit": "µg/mL"}, {"measurement": "Bleomycin B2 remaining in Spleen", "setting": "[3]; BLM 100 mg/kg s.c. alone", "value": 4.0, "unit": "µg/mL"}, {"measurement": "Bleomycin B2 remaining in Stomach", "setting": "[3]; BLM 100 mg/kg s.c. alone", "value": 1.6, "unit": "µg/mL"}]}]}
